# Laboratory results as given in ChEMBL document CHEMBL5375999, “Discovery of a Dual Tubulin and Neuropilin-1 (NRP1) Inhibitor with Potent In Vivo Anti-Tumor Activity via Pharmacophore-based Docking Screening, Structure Optimization, and Biological Evaluation” (J Med Chem, 2023).
# Active and inactive are the calls of the source. The calls are words filed in the database; no cut-off is given here.
# How the values were obtained:
# [1] = molecular target: Vascular endothelial growth factor receptor 2 (Homo sapiens, UniProt P35968); assay: Inhibition of VEGFR2 (unknown origin)
# [2] = tested on: PC-3; assay: Antiproliferative activity against human PC-3 cells assessed as inhibition of cell growth at 0.1 to 12.5 uM incubated for 48 hrs by EdU incorporation based assay; assay type: functional; settings: dose 0.1-12.5 µM
# [3] = tested on: PC-3; assay: Induction of cell cycle arrest in human PC-3 cells assessed as accumulation of cells at G2/M phase at 0.5 uM by flow cytometry analysis (reference value: 3.24%); assay type: functional
# [4] = molecular target: CDK6/cyclin D3 (Homo sapiens, UniProt Q00534); assay: Inhibition of CDK6/Cyclin D3 (unknown origin); assay type: protein-complex assay
# CDK6/cyclin D3, sequence (P30281 whole entry): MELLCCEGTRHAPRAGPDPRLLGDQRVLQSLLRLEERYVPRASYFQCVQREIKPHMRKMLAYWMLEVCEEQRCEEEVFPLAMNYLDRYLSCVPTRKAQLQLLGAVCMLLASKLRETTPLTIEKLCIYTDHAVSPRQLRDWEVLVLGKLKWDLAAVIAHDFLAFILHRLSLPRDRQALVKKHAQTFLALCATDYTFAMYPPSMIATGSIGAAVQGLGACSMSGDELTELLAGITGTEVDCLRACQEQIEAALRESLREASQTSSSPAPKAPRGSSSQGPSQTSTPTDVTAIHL
# CDK6/cyclin D3, sequence (Q00534 whole entry): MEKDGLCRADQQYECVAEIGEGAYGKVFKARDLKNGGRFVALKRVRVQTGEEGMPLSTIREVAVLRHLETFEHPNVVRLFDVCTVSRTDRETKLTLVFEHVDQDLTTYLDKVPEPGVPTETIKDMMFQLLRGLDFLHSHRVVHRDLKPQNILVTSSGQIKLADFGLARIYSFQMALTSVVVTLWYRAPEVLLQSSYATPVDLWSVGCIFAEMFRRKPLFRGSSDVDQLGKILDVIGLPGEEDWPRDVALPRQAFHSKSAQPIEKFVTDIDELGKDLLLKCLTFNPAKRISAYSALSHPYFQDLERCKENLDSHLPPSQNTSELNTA
# [5] = molecular target: T1, Tubulin (Homo sapiens) (UniProt P68371+Q9H4B7+P0DPH7+P68366+Q13509+Q71U36+P04350+Q3ZCM7+P07437+P68363+Q9BQE3+Q6PEY2+Q13885+Q9BVA1+Q9BUF5); assay: Inhibition of tubulin polymerization in human PC-3 cells assessed as cell shrinkage at 0.1 to 12.5 uM incubated for 48 hrs by immunofluorescence assay; assay type: cell-based; settings: dose 0.1-12.5 µM
# [6] = tested on: PC-3; assay: Induction of apoptosis in human PC-3 cells assessed as viable cells at 12.5 uM by Annexin-V FITC staining based flow cytometry analysis (reference value: 96.8%); assay type: functional; settings: read-out: Activity
# [7] = molecular target: Tyrosine-protein kinase HCK (Homo sapiens, UniProt P08631); assay: Inhibition of HCK (unknown origin)
# [8] = molecular target: Atypical kinase COQ8B, mitochondrial (Homo sapiens, UniProt Q96D53); assay: Inhibition of ADCK4 (unknown origin)
# [9] = molecular target: Serine/threonine-protein kinase pim-1 (Homo sapiens, UniProt P11309); assay: Inhibition of PIM1 (unknown origin)
# Serine/threonine-protein kinase pim-1, sequence (P11309 whole entry): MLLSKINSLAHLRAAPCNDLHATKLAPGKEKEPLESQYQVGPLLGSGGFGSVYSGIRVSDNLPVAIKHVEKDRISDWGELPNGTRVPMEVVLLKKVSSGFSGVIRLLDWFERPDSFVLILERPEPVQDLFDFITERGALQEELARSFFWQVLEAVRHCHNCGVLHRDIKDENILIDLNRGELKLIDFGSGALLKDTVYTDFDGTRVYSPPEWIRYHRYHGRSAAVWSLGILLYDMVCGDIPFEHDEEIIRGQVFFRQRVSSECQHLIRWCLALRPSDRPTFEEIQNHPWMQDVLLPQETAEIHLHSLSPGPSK
# [10] = tested on: PC-3; assay: Induction of cell cycle arrest in human PC-3 cells assessed as accumulation of cells at G2/M phase at 2.5 uM by flow cytometry analysis (reference value: 3.24%); assay type: functional
# [11] = molecular target: Cyclin-dependent kinase 2 (Homo sapiens, UniProt P24941); assay: Inhibition of CDK2 (unknown origin)
# [12] = molecular target: Vascular endothelial growth factor receptor 1 (Homo sapiens, UniProt P17948); assay: Inhibition of VEGFR1 (unknown origin)
# [13] = molecular target: Neuropilin-1 (Homo sapiens) (UniProt O14786); assay: Inhibition of [125I]-VEGF-A165 binding to NRP1 (unknown origin) transfected in HUVECs at 12 uM incubated for 2 hrs by plate reader analysis relative to control; assay type: cell-based; settings: HUVEC
# [14] = molecular target: Mitogen-activated protein kinase 8 (Homo sapiens, UniProt P45983); assay: Inhibition of JNK1 (unknown origin)
# Mitogen-activated protein kinase 8, sequence (P45983 whole entry): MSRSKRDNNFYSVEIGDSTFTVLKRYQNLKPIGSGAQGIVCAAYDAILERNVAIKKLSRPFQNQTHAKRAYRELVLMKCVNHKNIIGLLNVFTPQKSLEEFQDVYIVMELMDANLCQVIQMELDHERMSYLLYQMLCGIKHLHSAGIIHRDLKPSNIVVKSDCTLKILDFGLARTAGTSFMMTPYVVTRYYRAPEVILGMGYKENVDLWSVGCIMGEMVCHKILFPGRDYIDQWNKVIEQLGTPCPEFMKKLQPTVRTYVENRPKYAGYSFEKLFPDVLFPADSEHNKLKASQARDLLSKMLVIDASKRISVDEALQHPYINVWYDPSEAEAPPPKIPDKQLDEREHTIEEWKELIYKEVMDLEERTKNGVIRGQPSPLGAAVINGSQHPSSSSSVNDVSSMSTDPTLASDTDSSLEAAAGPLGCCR
# [15] = molecular target: Cytoplasmic tyrosine-protein kinase BMX (Homo sapiens, UniProt P51813); assay: Inhibition of BMX (unknown origin)
# [16] = tested on: PC-3; assay: Induction of apoptosis in human PC-3 cells assessed as viable cells at 2.5 uM by Annexin-V FITC staining based flow cytometry analysis (reference value: 96.8%); assay type: functional; settings: read-out: Activity
# [17] = molecular target: Proto-oncogene tyrosine-protein kinase ROS (Homo sapiens, UniProt P08922); assay: Inhibition of ROS1 (unknown origin)
# Proto-oncogene tyrosine-protein kinase ROS, sequence (P08922 whole entry): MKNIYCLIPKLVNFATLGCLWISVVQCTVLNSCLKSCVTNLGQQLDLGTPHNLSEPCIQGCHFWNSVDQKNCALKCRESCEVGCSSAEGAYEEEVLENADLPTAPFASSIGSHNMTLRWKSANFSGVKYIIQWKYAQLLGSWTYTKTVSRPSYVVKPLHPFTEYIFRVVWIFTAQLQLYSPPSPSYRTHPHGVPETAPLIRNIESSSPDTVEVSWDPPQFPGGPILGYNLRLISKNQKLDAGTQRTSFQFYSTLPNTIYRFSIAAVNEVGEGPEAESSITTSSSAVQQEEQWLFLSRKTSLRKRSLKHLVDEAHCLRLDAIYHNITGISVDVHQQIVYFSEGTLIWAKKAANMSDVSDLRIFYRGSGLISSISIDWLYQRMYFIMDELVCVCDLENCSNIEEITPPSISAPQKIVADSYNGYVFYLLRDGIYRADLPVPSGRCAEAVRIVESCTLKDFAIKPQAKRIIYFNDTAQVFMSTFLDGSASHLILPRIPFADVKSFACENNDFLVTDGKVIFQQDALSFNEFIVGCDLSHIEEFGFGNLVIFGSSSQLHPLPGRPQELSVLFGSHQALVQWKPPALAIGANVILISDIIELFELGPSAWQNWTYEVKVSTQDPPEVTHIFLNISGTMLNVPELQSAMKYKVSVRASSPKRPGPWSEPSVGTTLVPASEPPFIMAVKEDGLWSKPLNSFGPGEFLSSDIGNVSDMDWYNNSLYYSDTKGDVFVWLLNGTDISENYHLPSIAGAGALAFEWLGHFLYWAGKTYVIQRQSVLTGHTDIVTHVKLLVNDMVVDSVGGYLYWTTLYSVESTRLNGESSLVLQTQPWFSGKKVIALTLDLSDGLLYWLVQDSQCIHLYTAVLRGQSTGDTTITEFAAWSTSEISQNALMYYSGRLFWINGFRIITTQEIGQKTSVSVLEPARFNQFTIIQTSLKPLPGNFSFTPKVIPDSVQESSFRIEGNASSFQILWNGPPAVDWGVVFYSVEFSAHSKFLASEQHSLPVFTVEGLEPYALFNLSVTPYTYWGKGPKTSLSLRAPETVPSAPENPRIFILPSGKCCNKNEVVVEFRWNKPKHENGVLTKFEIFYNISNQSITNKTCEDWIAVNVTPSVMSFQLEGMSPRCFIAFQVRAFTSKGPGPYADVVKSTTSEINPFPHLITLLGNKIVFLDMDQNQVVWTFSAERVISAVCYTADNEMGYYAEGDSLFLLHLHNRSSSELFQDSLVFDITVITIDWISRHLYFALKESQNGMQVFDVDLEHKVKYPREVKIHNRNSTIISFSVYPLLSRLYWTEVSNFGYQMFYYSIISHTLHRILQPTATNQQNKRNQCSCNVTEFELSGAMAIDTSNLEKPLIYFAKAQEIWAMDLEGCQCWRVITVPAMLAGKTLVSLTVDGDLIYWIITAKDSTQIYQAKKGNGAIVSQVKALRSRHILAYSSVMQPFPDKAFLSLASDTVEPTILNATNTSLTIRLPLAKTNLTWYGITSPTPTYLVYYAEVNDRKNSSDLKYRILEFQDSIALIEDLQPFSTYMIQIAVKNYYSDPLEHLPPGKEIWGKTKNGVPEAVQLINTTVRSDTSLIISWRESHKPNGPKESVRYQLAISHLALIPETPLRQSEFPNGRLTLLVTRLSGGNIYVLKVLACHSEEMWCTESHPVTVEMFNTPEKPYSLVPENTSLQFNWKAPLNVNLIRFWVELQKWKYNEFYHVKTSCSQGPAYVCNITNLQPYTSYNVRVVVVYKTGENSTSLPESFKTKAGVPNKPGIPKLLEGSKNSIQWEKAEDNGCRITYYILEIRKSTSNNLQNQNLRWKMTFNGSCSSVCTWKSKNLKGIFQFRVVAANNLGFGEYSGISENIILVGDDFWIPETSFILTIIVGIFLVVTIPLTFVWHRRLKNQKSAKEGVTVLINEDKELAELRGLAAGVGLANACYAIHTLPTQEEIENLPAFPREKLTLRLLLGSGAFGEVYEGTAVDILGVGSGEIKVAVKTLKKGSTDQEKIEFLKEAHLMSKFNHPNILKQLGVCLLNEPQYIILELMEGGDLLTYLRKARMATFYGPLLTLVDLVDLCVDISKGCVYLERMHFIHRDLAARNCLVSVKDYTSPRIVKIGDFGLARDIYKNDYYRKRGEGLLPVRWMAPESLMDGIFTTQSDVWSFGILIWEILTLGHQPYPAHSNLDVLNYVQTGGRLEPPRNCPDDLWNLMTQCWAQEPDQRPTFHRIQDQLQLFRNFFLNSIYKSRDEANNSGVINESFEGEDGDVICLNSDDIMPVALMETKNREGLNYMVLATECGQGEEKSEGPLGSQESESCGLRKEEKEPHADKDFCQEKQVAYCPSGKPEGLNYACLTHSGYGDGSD
# [18] = molecular target: RAF proto-oncogene serine/threonine-protein kinase (Homo sapiens, UniProt P04049); assay: Inhibition of RAF1 (unknown origin)
# RAF proto-oncogene serine/threonine-protein kinase, sequence (P04049 whole entry): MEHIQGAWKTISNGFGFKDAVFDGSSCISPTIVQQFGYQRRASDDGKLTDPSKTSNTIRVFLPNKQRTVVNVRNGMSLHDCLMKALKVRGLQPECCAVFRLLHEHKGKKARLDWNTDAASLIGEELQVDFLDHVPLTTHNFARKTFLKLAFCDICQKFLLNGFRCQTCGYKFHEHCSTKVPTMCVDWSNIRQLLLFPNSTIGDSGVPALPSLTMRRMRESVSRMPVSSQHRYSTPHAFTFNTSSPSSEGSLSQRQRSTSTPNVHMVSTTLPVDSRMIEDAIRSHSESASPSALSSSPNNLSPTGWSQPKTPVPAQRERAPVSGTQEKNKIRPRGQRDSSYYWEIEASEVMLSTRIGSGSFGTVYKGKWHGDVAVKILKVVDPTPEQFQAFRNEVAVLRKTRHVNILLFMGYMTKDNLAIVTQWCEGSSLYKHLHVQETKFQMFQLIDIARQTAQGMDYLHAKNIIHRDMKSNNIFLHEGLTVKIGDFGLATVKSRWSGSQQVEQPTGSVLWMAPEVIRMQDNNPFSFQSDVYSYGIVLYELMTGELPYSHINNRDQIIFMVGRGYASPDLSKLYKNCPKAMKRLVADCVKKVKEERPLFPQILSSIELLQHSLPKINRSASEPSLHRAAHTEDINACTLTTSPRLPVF
# [19] = tested on: PC-3; assay: Induction of apoptosis in human PC-3 cells assessed as early apoptotic cells at 0.1 uM by Annexin-V FITC staining based flow cytometry analysis (reference value: 1.51%); assay type: functional
# [20] = tested on: PC-3; assay: Induction of cell cycle arrest in human PC-3 cells assessed as G0/G1 phase cells at 2.5 uM by flow cytometry analysis (reference value: 94.76%); assay type: functional
# [21] = Cytotoxicity against human PrEC cells assessed as inhibition of cell viability incubated for 48 hrs by MTT assay; assay type: toxicity, cell-based
# [22] = molecular target: Neuropilin-2 (Homo sapiens, UniProt O60462); assay: Inhibition of NRP2 (unknown origin)
# [23] = tested on: HUVEC; assay: Antiinvasive activity against HUVECs at 0.1 to 12.5 uM incubated for 24 hrs by crystal violet staining based optical microscopic analysis; assay type: functional, cell-based; settings: Homo sapiens, dose 0.1-12.5 µM
# [24] = molecular target: Serine/threonine-protein kinase PLK1 (Homo sapiens, UniProt P53350); assay: Inhibition of PLK1 (unknown origin)
# Serine/threonine-protein kinase PLK1, sequence (P53350 whole entry): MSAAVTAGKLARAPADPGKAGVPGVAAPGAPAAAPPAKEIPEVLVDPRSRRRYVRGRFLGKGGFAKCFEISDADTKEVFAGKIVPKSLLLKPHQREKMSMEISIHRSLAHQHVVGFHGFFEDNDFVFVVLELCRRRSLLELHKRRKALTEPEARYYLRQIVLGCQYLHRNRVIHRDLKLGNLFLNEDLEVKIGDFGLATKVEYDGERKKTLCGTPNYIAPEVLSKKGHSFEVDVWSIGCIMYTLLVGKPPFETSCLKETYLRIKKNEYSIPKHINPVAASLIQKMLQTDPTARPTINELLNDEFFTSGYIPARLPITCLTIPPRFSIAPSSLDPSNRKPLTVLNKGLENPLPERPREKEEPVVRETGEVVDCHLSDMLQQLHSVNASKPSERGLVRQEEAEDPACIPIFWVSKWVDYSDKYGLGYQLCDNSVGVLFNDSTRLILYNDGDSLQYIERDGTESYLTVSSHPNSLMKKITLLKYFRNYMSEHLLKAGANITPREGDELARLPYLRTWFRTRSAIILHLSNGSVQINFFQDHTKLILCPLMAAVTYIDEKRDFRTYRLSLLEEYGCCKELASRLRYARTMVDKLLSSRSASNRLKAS
# [25] = tested on: PC-3; assay: Induction of apoptosis in human PC-3 cells assessed as necrotic cells at 12.5 uM by Annexin-V FITC staining based flow cytometry analysis (reference value: 0.059%); assay type: functional
# [26] = molecular target: Activin receptor type-2A (Homo sapiens, UniProt P27037); assay: Inhibition of ACVR2 (unknown origin)
# [27] = molecular target: Ankyrin repeat and protein kinase domain-containing protein 1 (Homo sapiens, UniProt Q8NFD2); assay: Inhibition of ANKK1 (unknown origin)
# [28] = Toxicity in BALB/c mouse xenografted with human PC-3 cells assessed as change body weight at 5 to 10 mg/kg, ip administered every 4 days for 20 days; assay type: organism-based; settings: in vivo, 480 h, dose 5-10 mg/kg, time 20 day
# [29] = tested on: PC-3M-1E8; assay: Cytotoxicity against human PC-3M-1E8 cells assessed as inhibition of cell viability incubated for 48 hrs by MTT assay; assay type: functional, cell-based
# [30] = Toxicity in BALB/c mouse xenografted with human PC-3 cells assessed as change in heart morphology at 5 to 10 mg/kg, ip administered every 4 days for 20 days by H and E staining based inverted microscopic assay; assay type: organism-based; settings: in vivo, 480 h, dose 5-10 mg/kg, time 20 day
# [31] = tested on: PC-3; assay: Antitumor activity against human PC-3 cells xenografted in BALB/c nude mouse assessed as tumor disappearance at 10 mg/kg, ip administered every 4 days for 20 days; assay type: functional, organism-based; settings: time 20.0 day
# [32] = tested on: PC-3; assay: Induction of apoptosis in human PC-3 cells assessed as increase in cleaved PARP expression at 0.5 to 12.5 uM incubated for 48 hrs by Western blotting analysis; assay type: functional, cell-based; settings: dose 0.5-12.5 µM
# [33] = tested on: PC-3; assay: Inhibition of colony formation in human PC-3 cells incubated for 10 days by crystal violet staining based assay; assay type: functional, cell-based; settings: dose 0.1-12.5 µM, time 10.0 day
# [34] = tested on: PC-3; assay: Induction of apoptosis in human PC-3 cells assessed as early apoptotic cells at 0.5 uM by Annexin-V FITC staining based flow cytometry analysis (reference value: 1.51%); assay type: functional
# [35] = tested on: PC-3; assay: Induction of apoptosis in human PC-3 cells assessed as viable cells at 0.5 uM by Annexin-V FITC staining based flow cytometry analysis (reference value: 96.8%); assay type: functional; settings: read-out: Activity
# [36] = AUC in Sprague-Dawley rat at 1.5 mg/kg, po measured upto 24 hrs by LC-MS/MS analysis; assay type: ADME, organism-based; set-up: dose 1.5 mg/kg, time < 24 hrs, route po; settings: in vivo
# [37] = tested on: DU-145; assay: Cytotoxicity against human DU-145 cells assessed as inhibition of cell viability incubated for 48 hrs by MTT assay; assay type: functional, cell-based
# [38] = molecular target: Tubulin; assay: Inhibition of tubulin polymerization (unknown origin) by spectrophotometric analysis; assay type: protein-complex assay, Homo sapiens
# [39] = molecular target: T1, Tubulin (Homo sapiens); assay: Inhibition of tubulin polymerization in human PC-3 cells assessed as appearance of blurred nucleus at 2.5 to 12.5 uM incubated for 48 hrs by immunofluorescence assay; assay type: cell-based; settings: dose 2.5-12.5 µM
# [40] = molecular target: Focal adhesion kinase 1 (Homo sapiens, UniProt Q05397); assay: Inhibition of FAK (unknown origin)
structure (smiles),measurement,setting,value
COc1ccc(/C=C\c2cc(OC)c(OC)c(OC)c2)cc1NC(=O)CCC(=O)N[C@@H](CCCNC(=N)N)C(=O)O,IC50,[1],> 10 µM
same,Activity,[2],Active
same,Activity,[3],8.96%
same,IC50,[4],> 10 µM
same,inhibition,[5],Active
same,viability at 12.5 µM,[6],89.4%
same,IC50,[7],> 10 µM
same,IC50,[8],> 10 µM
same,IC50,[9],> 10 µM
same,Activity,[10],11.58%
same,IC50,[11],> 10 µM
same,IC50,[12],> 10 µM
same,inhibition,[13],94%
same,IC50,[14],> 10 µM
same,IC50,[15],> 10 µM
same,viability at 2.5 µM,[16],89.3%
same,IC50,[17],> 10 µM
same,IC50,[18],> 10 µM
same,Activity,[19],1.84%
same,Activity,[20],84.75%
same,IC50 at 48 h,[21],> 10 µM
same,IC50,[22],> 10 µM
same,Activity,[23],Active
same,IC50,[24],> 10 µM
same,Activity,[25],0.083%
same,IC50,[26],> 10 µM
same,IC50,[27],> 10 µM
same,Activity,[28],Non-Toxic
same,Activity,[29],Active
same,Activity,[30],Non-Toxic
same,Activity,[31],Active
same,Activity,[32],Active
same,inhibition,[33],Dose-Dependent Effect
same,Activity,[34],2.95%
same,viability at 0.5 µM,[35],91.6%
same,AUC at 24 h,[36],4300 ng·h/mL
same,Activity,[37],Active
same,IC50,[38],0.71 µM
same,inhibition,[39],Active
same,IC50,[40],> 10 µM
